Experimental data taken from article PMC7155420 (2020).

How the values were obtained:
[1] = test system: r(CGGx1); GGx1; (5'CGG/3'GCC) x 1 in Table S1 (RNA, mismatch bulge abasic) GGAGAGGGUUUAAUCGGUACGAAAGUACGGAUUGGAUCCGCAAGG; assay: CD melting, 267 nm; conditions: K+ (50 mM KCl, 10 mM potassium phosphate); 10 µM RNA; drug/nucleic acid ratio up to 2.0; 1 °C/min; per base
[2] = test system: r(CGGx6); GGx6 (RNA, repeat) GGAGAGGGUUUAAUCGGCGGCGGCGGCGGCGGUACGAAAGUACGGCGGCGGCGGCGGCGGAUUGGAUCCGCAAGG; assay: fluorescence titration (curcumin fluorescence), two-mode fit; conditions: 50 mM KCl (general buffer); 10 mM phosphate, pH 7.0, 25 °C; stronger of two sites
[3] = test system: r(CGGx1); GGx1; (5'CGG/3'GCC) x 1 in Table S1 (RNA, mismatch bulge abasic) GGAGAGGGUUUAAUCGGUACGAAAGUACGGAUUGGAUCCGCAAGG; assay: as above; conditions: 50 mM KCl (general buffer); 10 mM phosphate, pH 7.0, 25 °C; stronger of two sites
[4] = test system: r(CGGx6); GGx6 (RNA, repeat) GGAGAGGGUUUAAUCGGCGGCGGCGGCGGCGGUACGAAAGUACGGCGGCGGCGGCGGCGGAUUGGAUCCGCAAGG; assay: ITC, two-mode fit; conditions: K+ (10 mM potassium phosphate); 298 K; highest-affinity site
[5] = test system: r(CGGx6); GGx6 (RNA, repeat) GGAGAGGGUUUAAUCGGCGGCGGCGGCGGCGGUACGAAAGUACGGCGGCGGCGGCGGCGGAUUGGAUCCGCAAGG; assay: CD melting, 267 nm; conditions: K+ (50 mM KCl, 10 mM potassium phosphate); 10 µM RNA; drug/nucleic acid ratio up to 2.0; 1 °C/min; per base

- ΔTm [1]: 1.49 °C
- Kd1 [2]: 0.092 ± 0.004 µM
- Kd1 [3]: 0.12 ± 0.02 µM
- Ka [4]: 1.7 × 10^6 M^–1
- ΔTm [5]: 3.48 °C
Compound: COc1cc(/C=C/C(=O)CC(=O)/C=C/c2ccc(O)c(OC)c2)ccc1O
